This assay concerns the target T1, FGFR2 (Homo sapiens, UniProt P21802).
T1 construct: endogenous amplified FGFR2 in NCI-H716 cells
Description: FGFR2 Y653/[…] phosphorylation in NCI-H716 cells, western blot quantitation. The format is cell-based. (A western blot detects proteins with antibodies after separation by electrophoresis.)

As a reminder, the IC50 is the point on the concentration scale where inhibition reaches its midpoint.

T1 sequence (P21802 22-821): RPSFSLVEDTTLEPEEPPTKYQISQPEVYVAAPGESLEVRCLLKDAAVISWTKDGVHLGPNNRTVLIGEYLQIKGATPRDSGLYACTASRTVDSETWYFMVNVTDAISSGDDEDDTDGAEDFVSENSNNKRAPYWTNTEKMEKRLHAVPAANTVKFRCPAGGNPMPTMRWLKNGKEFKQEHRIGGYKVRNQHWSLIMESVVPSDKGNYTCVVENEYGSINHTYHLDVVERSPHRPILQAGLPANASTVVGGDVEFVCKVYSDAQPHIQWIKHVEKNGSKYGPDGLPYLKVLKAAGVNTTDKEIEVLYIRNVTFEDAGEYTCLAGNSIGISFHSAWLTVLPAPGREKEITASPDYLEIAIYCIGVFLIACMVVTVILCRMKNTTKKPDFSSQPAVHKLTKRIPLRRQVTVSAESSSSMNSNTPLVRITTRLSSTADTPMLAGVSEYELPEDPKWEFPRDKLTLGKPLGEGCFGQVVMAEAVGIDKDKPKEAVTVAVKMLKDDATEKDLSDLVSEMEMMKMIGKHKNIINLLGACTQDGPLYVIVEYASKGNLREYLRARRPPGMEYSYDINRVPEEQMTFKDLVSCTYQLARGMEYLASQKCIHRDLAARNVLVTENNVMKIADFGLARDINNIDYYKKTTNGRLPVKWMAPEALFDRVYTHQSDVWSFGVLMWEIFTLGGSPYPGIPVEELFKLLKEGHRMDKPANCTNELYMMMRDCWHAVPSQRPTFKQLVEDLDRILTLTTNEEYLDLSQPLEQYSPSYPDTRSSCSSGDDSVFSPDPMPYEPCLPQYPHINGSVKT

For the compound `CN(C[C@@H]1COCCO1)S(=O)(=O)Nc1ccc2ccc3ncc(-c4cnn(C)c4)cc3c(=O)c2c1` [MK2461], half-maximal inhibition (IC50) was put at 165 nM.
